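Cells were grown in 96-well plates and exposed to each compound for 48 hours at five concentrations; endpoints were interpolated linearly between bracketing concentrations, or set to the highest concentration if not reached. The concentration for 50% growth inhibition is given as GI50.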 Activity calls are given as the source filed them. Rule as the data show it: active = GI50 up to about 1.1 µM and inactive = higher.
Tests used:
Assay in all cases: NCI tumour cell line growth inhibition, 48 h
MOLT-4 = test system: MOLT-4
OVCAR-8 = test system: OVCAR-8
NCI-H226 = test system: NCI-H226
NCI-H522 = test system: NCI-H522
CAKI-1 = test system: CAKI-1
UACC-62 = test system: UACC-62
RXF 393 = test system: RXF 393
PC-3 = test system: PC-3
A498 = test system: A498
SF-295 = test system: SF-295
NCI-H23 = test system: NCI-H23
LOX IMVI = test system: LOX IMVI
HT-29 = test system: HT-29
SK-MEL-28 = test system: SK-MEL-28
RPMI-8226 = test system: RPMI-8226
KM12 = test system: KM12
OVCAR-5 = test system: OVCAR-5
U-251 = test system: U-251
SW-620 = test system: SW-620
HOP-62 = test system: HOP-62
ACHN = test system: ACHN
786-0 = test system: 786-0
T47D = test system: T47D
CCRF-CEM = test system: CCRF-CEM
NCI/ADR-RES = test system: NCI/ADR-RES
SN12C = test system: SN12C
EKVX = test system: EKVX
HOP-92 = test system: HOP-92
BT-549 = test system: BT-549
OVCAR-3 = test system: OVCAR-3
SF-268 = test system: SF-268
SK-MEL-2 = test system: SK-MEL-2
K562 = test system: K562
SF-539 = test system: SF-539
IGROV-1 = test system: IGROV-1
A549 = test system: A549
UO-31 = test system: UO-31
HCC 2998 = test system: HCC 2998
DU-145 = test system: DU-145
SNB-19 = test system: SNB-19
MDA-MB-231 = test system: MDA-MB-231
COLO 205 = test system: COLO 205
MDA-MB-435 = test system: MDA-MB-435
SK-MEL-5 = test system: SK-MEL-5
Hs-578T = test system: Hs-578T
UACC-257 = test system: UACC-257
MCF7 = test system: MCF7
M14 = test system: M14
HCT-116 = test system: HCT-116
OVCAR-4 = test system: OVCAR-4
HCT-15 = test system: HCT-15
SK-OV-3 = test system: SK-OV-3
TK-10 = test system: TK-10
SNB-75 = test system: SNB-75
NCI-H460 = test system: NCI-H460
Malme-3M = test system: Malme-3M
HL-60 = test system: HL-60
MDA-N = test system: MDA-N

**Q.** For `COC(=O)CCCC(=O)C1=NN(c2ccc(Cl)cc2)Cc2ccccc2N1`, which GI50 (MOLT-4) is on record?
**A.** > 100 µM (inactive)

**Q.** And the GI50 (OVCAR-8)?
**A.** 56.4 µM (inactive)

**Q.** And the GI50 (NCI-H226)?
**A.** 51.4 µM (inactive)

**Q.** What about the GI50 (NCI-H522) of the same compound?
**A.** 54.7 µM (inactive)

**Q.** What about the GI50 (CAKI-1) of the same compound?
**A.** > 100 µM (inactive)

**Q.** What about the GI50 (UACC-62) of the same compound?
**A.** 27.3 µM (inactive)

**Q.** And the GI50 (RXF 393)?
**A.** 86.1 µM (inactive)

**Q.** What about the GI50 (PC-3) of the same compound?
**A.** 91 µM (inactive)

**Q.** And the GI50 (A498)?
**A.** 36.1 µM (inactive)

**Q.** And the GI50 (SF-295)?
**A.** > 100 µM (inactive)

**Q.** What about the GI50 (NCI-H23) of the same compound?
**A.** > 100 µM (inactive)

**Q.** And the GI50 (LOX IMVI)?
**A.** > 100 µM (inactive)

**Q.** What about the GI50 (HT-29) of the same compound?
**A.** 98.6 µM (inactive)

**Q.** What about the GI50 (SK-MEL-28) of the same compound?
**A.** > 100 µM (inactive)

**Q.** And the GI50 (RPMI-8226)?
**A.** > 100 µM (inactive)

**Q.** And the GI50 (KM12)?
**A.** > 100 µM (inactive)

**Q.** And the GI50 (OVCAR-5)?
**A.** > 100 µM (inactive)

**Q.** What about the GI50 (U-251) of the same compound?
**A.** > 100 µM (inactive)

**Q.** What about the GI50 (SW-620) of the same compound?
**A.** > 100 µM (inactive)

**Q.** What about the GI50 (HOP-62) of the same compound?
**A.** 60.5 µM (inactive)

**Q.** What about the GI50 (ACHN) of the same compound?
**A.** > 100 µM (inactive)

**Q.** And the GI50 (786-0)?
**A.** 17.6 µM (inactive)

**Q.** And the GI50 (T47D)?
**A.** 5.56 µM (inactive)

**Q.** And the GI50 (CCRF-CEM)?
**A.** > 100 µM (inactive)

**Q.** And the GI50 (NCI/ADR-RES)?
**A.** 79.4 µM (inactive)

**Q.** What about the GI50 (SN12C) of the same compound?
**A.** > 100 µM (inactive)

**Q.** What about the GI50 (EKVX) of the same compound?
**A.** 70.6 µM (inactive)

**Q.** And the GI50 (HOP-92)?
**A.** > 100 µM (inactive)

**Q.** What about the GI50 (BT-549) of the same compound?
**A.** > 100 µM (inactive)

**Q.** What about the GI50 (OVCAR-3) of the same compound?
**A.** 93.8 µM (inactive)

**Q.** What about the GI50 (SF-268) of the same compound?
**A.** > 100 µM (inactive)

**Q.** What about the GI50 (SK-MEL-2) of the same compound?
**A.** > 100 µM (inactive)

**Q.** What about the GI50 (K562) of the same compound?
**A.** > 100 µM (inactive)

**Q.** And the GI50 (SF-539)?
**A.** > 100 µM (inactive)

**Q.** And the GI50 (IGROV-1)?
**A.** > 100 µM (inactive)

**Q.** What about the GI50 (A549) of the same compound?
**A.** 96.4 µM (inactive)

**Q.** And the GI50 (UO-31)?
**A.** > 100 µM (inactive)

**Q.** And the GI50 (HCC 2998)?
**A.** > 100 µM (inactive)

**Q.** What about the GI50 (DU-145) of the same compound?
**A.** > 100 µM (inactive)

**Q.** What about the GI50 (SNB-19) of the same compound?
**A.** > 100 µM (inactive)

**Q.** What about the GI50 (MDA-MB-231) of the same compound?
**A.** > 100 µM (inactive)

**Q.** And the GI50 (COLO 205)?
**A.** 54 µM (inactive)

**Q.** And the GI50 (MDA-MB-435)?
**A.** > 100 µM (inactive)

**Q.** What about the GI50 (SK-MEL-5) of the same compound?
**A.** > 100 µM (inactive)

**Q.** What about the GI50 (Hs-578T) of the same compound?
**A.** 68.4 µM (inactive)

**Q.** And the GI50 (UACC-257)?
**A.** > 100 µM (inactive)

**Q.** And the GI50 (MCF7)?
**A.** 75.9 µM (inactive)

**Q.** And the GI50 (M14)?
**A.** > 100 µM (inactive)

**Q.** What about the GI50 (HCT-116) of the same compound?
**A.** > 100 µM (inactive)

**Q.** And the GI50 (OVCAR-4)?
**A.** 20.7 µM (inactive)

**Q.** What about the GI50 (HCT-15) of the same compound?
**A.** 95.1 µM

**Q.** And the GI50 (SK-OV-3)?
**A.** > 100 µM (inactive)

**Q.** And the GI50 (TK-10)?
**A.** > 100 µM (inactive)

**Q.** And the GI50 (SNB-75)?
**A.** 88.3 µM (inactive)

**Q.** How did the GI50 (MOLT-4) turn out when `CC(=O)Oc1ccc(N2C(=O)C3c4[nH]c5ccccc5c4C4CCC(C(C)(C)C)CC4C3C2=O)cc1` (stereo not drawn) was run?
**A.** 10 µM (inactive)

**Q.** What about the GI50 (OVCAR-8) of the same compound?
**A.** 3.84 µM (inactive)

**Q.** And the GI50 (NCI-H226)?
**A.** 12.7 µM (inactive)

**Q.** What about the GI50 (NCI-H522) of the same compound?
**A.** 4.45 µM (inactive)

**Q.** And the GI50 (CAKI-1)?
**A.** 5.31 µM (inactive)

**Q.** And the GI50 (UACC-62)?
**A.** 6.08 µM (inactive)

**Q.** And the GI50 (RXF 393)?
**A.** 2.46 µM (inactive)

**Q.** What about the GI50 (PC-3) of the same compound?
**A.** 2.79 µM (inactive)

**Q.** What about the GI50 (A498) of the same compound?
**A.** 4.11 µM (inactive)

**Q.** And the GI50 (NCI-H460)?
**A.** 2.55 µM (inactive)

**Q.** What about the GI50 (SF-295) of the same compound?
**A.** 4.37 µM (inactive)

**Q.** And the GI50 (Malme-3M)?
**A.** 6.56 µM (inactive)

**Q.** And the GI50 (NCI-H23)?
**A.** 3.56 µM (inactive)

**Q.** And the GI50 (LOX IMVI)?
**A.** 4.41 µM (inactive)

**Q.** And the GI50 (HT-29)?
**A.** 3.3 µM (inactive)

**Q.** What about the GI50 (SK-MEL-28) of the same compound?
**A.** 3.76 µM (inactive)

**Q.** What about the GI50 (RPMI-8226) of the same compound?
**A.** 6.68 µM (inactive)

**Q.** And the GI50 (OVCAR-5)?
**A.** 2.63 µM (inactive)

**Q.** And the GI50 (U-251)?
**A.** 3.27 µM (inactive)

**Q.** And the GI50 (SW-620)?
**A.** 2.51 µM (inactive)

**Q.** What about the GI50 (HOP-62) of the same compound?
**A.** 3.79 µM (inactive)

**Q.** What about the GI50 (ACHN) of the same compound?
**A.** 3.55 µM (inactive)

**Q.** What about the GI50 (786-0) of the same compound?
**A.** 2.1 µM (inactive)

**Q.** What about the GI50 (CCRF-CEM) of the same compound?
**A.** 10 µM (inactive)

**Q.** What about the GI50 (NCI/ADR-RES) of the same compound?
**A.** 3.56 µM (inactive)

**Q.** What about the GI50 (SN12C) of the same compound?
**A.** 2.14 µM (inactive)

**Q.** And the GI50 (EKVX)?
**A.** 3.07 µM (inactive)

**Q.** And the GI50 (HOP-92)?
**A.** 3.03 µM (inactive)

**Q.** What about the GI50 (BT-549) of the same compound?
**A.** 4.02 µM (inactive)

**Q.** And the GI50 (OVCAR-3)?
**A.** 2.69 µM (inactive)

**Q.** What about the GI50 (SF-268) of the same compound?
**A.** 3.34 µM (inactive)

**Q.** And the GI50 (SK-MEL-2)?
**A.** 5.13 µM (inactive)

**Q.** And the GI50 (K562)?
**A.** 3.26 µM (inactive)

**Q.** And the GI50 (SF-539)?
**A.** 5.01 µM (inactive)

**Q.** And the GI50 (IGROV-1)?
**A.** 5.97 µM (inactive)

**Q.** And the GI50 (A549)?
**A.** 3.13 µM (inactive)

**Q.** And the GI50 (UO-31)?
**A.** 5.35 µM (inactive)

**Q.** And the GI50 (HCC 2998)?
**A.** 2.68 µM (inactive)

**Q.** What about the GI50 (HL-60) of the same compound?
**A.** 2.21 µM (inactive)

**Q.** What about the GI50 (MDA-N) of the same compound?
**A.** 4.67 µM (inactive)

**Q.** And the GI50 (DU-145)?
**A.** 3.7 µM (inactive)

**Q.** What about the GI50 (SNB-19) of the same compound?
**A.** 3.08 µM (inactive)

**Q.** And the GI50 (MDA-MB-231)?
**A.** 2.28 µM (inactive)

**Q.** What about the GI50 (COLO 205) of the same compound?
**A.** 4.71 µM (inactive)

**Q.** What about the GI50 (MDA-MB-435) of the same compound?
**A.** 10.4 µM (inactive)

**Q.** What about the GI50 (SK-MEL-5) of the same compound?
**A.** 2.84 µM (inactive)

**Q.** And the GI50 (Hs-578T)?
**A.** 2.31 µM (inactive)

**Q.** What about the GI50 (UACC-257) of the same compound?
**A.** 11.1 µM (inactive)

**Q.** And the GI50 (MCF7)?
**A.** 2.88 µM (inactive)

**Q.** And the GI50 (M14)?
**A.** 4.01 µM (inactive)

**Q.** What about the GI50 (HCT-116) of the same compound?
**A.** 2.15 µM (inactive)

**Q.** And the GI50 (HCT-15)?
**A.** 4.07 µM

**Q.** What about the GI50 (SK-OV-3) of the same compound?
**A.** 10.8 µM (inactive)

**Q.** What about the GI50 (TK-10) of the same compound?
**A.** 3.33 µM (inactive)
